Results as given in patent US7067491B2, “Heterocyclic compounds having elastase-inhibiting activity and intermediates thereof” (Dainippon Pharmaceutical Co., Ltd., priority 2002, dated 2006).

system: pulmonary hemorrhage induced by human neutrophil elastase (HNE); experiment: Inhibitory activity on pulmonary hemorrhage induced by human neutrophil elastase (HNE); format: in vivo; settings: hamster, dose 3 mg/kg orally, 30 minutes prior to HNE
Excerpt: Experiment 3: Inhibitory Activity on Pulmonary Hemorrhage Induced by Human Neutrophil Elastase (HNE)
This experiment tested on in vivo efficacy of the compound of the present invention. When human neutrophil elastase is intratracheally administered to a hamster, the pulmonary hemorrhage is induced. A definite time later after administration of the elastase, in the bronchoalveolar lavage fluid by washing lung via trachea, hemoglobin is detected.
Hamsters (Syrian strain, 7–10 weeks old male) were divided into groups consisting of 3 to 6, and each group was treated as follows:
(A) A Group to which the Compound of the Present Invention was not Administered (Disease Control):
Physiological saline solution (0.2 ml) in which 25 unit of human neutrophil elastase (Elastin Product Co., Inc.) was dissolved was intratracheally administered to a hamster to induce the pulmonary hemorrhage. One hour later after administration of elastase, the hamsters were sacrificed by exsanquination, and alveoli were transtracheally washed twice with physiological saline (2.5 ml), and the hemoglobin concentration in the bronchoalveolar lavage fluid (5 ml) was determined by measuring the absorbance at 414 nm.
(B) A Group to which the Compound of the Present Invention was Administered:
A fixed amount of the compound of the present invention was dissolved in dimethyl sulfoxide (DMSO), and thereto was added 0.5% tragacanth gum to prepare a suspension. The suspension was orally administered to a hamster, 30 minutes prior to the administration of human neutrophil elastase (HNE) (final concentration of DMSO, 1%), and then, human neutrophil elastase was administered in the same manner as the above method (A). After 1 hour, the concentration of hemoglobin in the bronchoalveolar lavage fluid was determined in the same manner as the above method (A).
The hemorrhage inhibition activity of the compound of the present invention is represented as the hemorrhage inhibiting rate in the following formula.
The dose of the compound of the present invention to be required to achieve 50% inhibition of pulmonary hemorrhage (i.e., ED50) was calculated based on the administration dose-hemorrhage inhibiting rate curve.
As a comparative example, the same experiment was also carried out on a comparative compound used in Experiment 1.
Some of the compounds of the present invention were compared with the comparative compound on the hemorrhage inhibitory rate at the dose of 3 mg/kg.

SMILES	Pulmonary hemorrhage inhibitory rate (%)
Cc1c(C(=O)N[C@H](C(=O)N2CCC[C@H]2C(=O)N[C@H](C(=O)C(F)(F)F)C(C)C)C(C)C)cnn1-c1ccccc1F [Example 45]	58
Cc1cc2onc(C(=O)N[C@H](C(=O)N3CCC[C@H]3C(=O)N[C@H](C(=O)C(F)(F)F)C(C)C)C(C)C)c2cc1C [Example 17, N-[(1S)-2-((2S)-2-{N-[(1S)-3,3,3-trifluoro-1-(methylethyl)-2-oxopropyl]carbamoyl}pyrrolidinyl)-1-(methylethyl)-2-oxoethyl]-(5,6-dimethylbenzo[d]isoxazol-3-yl)carboxamide]	59
Cc1c(C(=O)N[C@H](C(=O)N2CCC[C@H]2C(=O)N[C@H](C(=O)C(F)(F)F)C(C)C)C(C)C)cnn1-c1ccc(C(F)(F)F)cc1 [Example 47, N-[(1S)-2-((2S)-2-{N-[(1S)-3,3,3-trifluoro-1-(methylethyl)-2-oxopropyl]carbamoyl}pyrrolidinyl)-1-(methylethyl)-2-oxoethyl]-{5-methyl-1-[4-(trifluoromethyl)phenyl]pyrazol-4-yl}carboxamide]	60

target: T1, human neutrophil elastase (Homo sapiens, UniProt P08246); experiment: Inhibitory activity on human neutrophil elastase (HNE) in vitro; format: biochemical; settings: human neutrophil elastase 0.2 U/ml, substrate MeO-Suc-Ala-Ala-Pro-Val-pNA 0.5 mM, 37° C., pH 7.5
T1 construct: purchased Elastine Product Co., Inc
T1 sequence (P08246 30-267): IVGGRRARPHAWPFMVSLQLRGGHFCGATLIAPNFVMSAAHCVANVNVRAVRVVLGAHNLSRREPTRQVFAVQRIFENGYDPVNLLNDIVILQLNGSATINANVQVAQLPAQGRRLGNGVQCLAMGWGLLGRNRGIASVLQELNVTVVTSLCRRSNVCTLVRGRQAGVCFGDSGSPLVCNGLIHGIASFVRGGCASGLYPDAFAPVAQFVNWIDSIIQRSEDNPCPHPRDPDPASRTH
Procedure: Experiment 1: Inhibitory Activity on Human Neutrophil Elastase (HNE)
The inhibitory activity of the compound of the present invention in vitro on human neutrophil elastase was examined by this experiment.
To 100 mM of HEPES {[N-(2-hydroxyethyl)piperazine-N′-(2-ethanesulfonic acid)], pH 7.5}buffer solution containing 1M NaCl and 0.001% Brij-35 (polyoxyethylene lauryl ether) were added human neutrophil elastase (final concentration: 0.2 U/ml, Elastine Product Co., Inc.) and the compound of the present invention (dissolved in 10% dimethyl sulfoxide; final concentration: 10^−10˜3×10^−3 M). The mixture was pre-incubated for 3 minutes at 37° C. Thereto was added MeO-Suc-Ala-Ala-Pro-Val-pNA (methoxysuccinyl-alanyl-alanyl-prolyl-valyl-p-nitroanilide (Sigma Chemical Co.)) as a substrate to give the final concentration of 0.5 mM, and the reaction was initiated. Under this condition, the producing rate of the reaction product, p-nitroanilide (pNA) at 37° C. was estimated by measuring the absorbance at 404 nm for 3 minutes.
The inhibitory activity of the compound of the present invention against human neutrophil elastase (HNE) is calculated according to the following formula.
The concentration of the compound of the present invention to be required to achieve 50% HNE inhibition (i.e., IC50) was calculated based on the concentration-inhibitory rate curve of the compound of the present invention.
As a comparative compound, N-[(1S)-2-((2S)-2-{N-[(1S)-3,3,3-trifluoro-1-(methylethyl)-2-oxopropyl]carbamoyl}pyrrolidinyl)-1-(methylethyl)-2-oxoethyl](imidazol-4-yl)carboxamide was used, and the same assay was carried out. The planar structure of this compound was the same as one of compound (22) disclosed in J. Med. Chem., 1997, 40, 1876–1885.

SMILES	IC50 [nM]
CC(C)[C@H](NC(=O)c1cnn(-c2ccccc2)c1)C(=O)N1CCC[C@H]1C(=O)N[C@H](C(=O)C(F)(F)F)C(C)C [Example 33, N-[(1S)-2-((2S)-2-{N-[(1S)-3,3,3-trifluoro-1-(methylethyl)-2-oxopropyl]carbamoyl}pyrrolidinyl)-1-(methylethyl)-2-oxoethyl]-(1-phenylpyrazol-4-yl)carboxamide]	12
Cc1c(C(=O)N[C@H](C(=O)N2CCC[C@H]2C(=O)N[C@H](C(=O)C(F)(F)F)C(C)C)C(C)C)cnn1-c1ccccc1F [Example 45]	8.4
Cc1ccc(-n2ncc(C(=O)N[C@H](C(=O)N3CCC[C@H]3C(=O)N[C@H](C(=O)C(F)(F)F)C(C)C)C(C)C)c2C)cc1 [Example 39, N-[(1S)-2-((2S)-2-{N-[(1S)-3,3,3-trifluoro-1-(methylethyl)-2-oxopropyl]carbamoyl}pyrrolidinyl)-1-(methylethyl)-2-oxoethyl]-[5-methyl-1-(4-methylphenyl)pyrazol-4-yl]carboxamide]	10
Cc1cc2onc(C(=O)N[C@H](C(=O)N3CCC[C@H]3C(=O)N[C@H](C(=O)C(F)(F)F)C(C)C)C(C)C)c2cc1C [Example 17, N-[(1S)-2-((2S)-2-{N-[(1S)-3,3,3-trifluoro-1-(methylethyl)-2-oxopropyl]carbamoyl}pyrrolidinyl)-1-(methylethyl)-2-oxoethyl]-(5,6-dimethylbenzo[d]isoxazol-3-yl)carboxamide]	11
CC(C)[C@H](NC(=O)c1ccc2c(c1)nnn2C(C)C)C(=O)N1CCC[C@H]1C(=O)N[C@H](C(=O)C(F)(F)F)C(C)C [Example 13, N-[(1S)-2-((2S)-2-{N-[(1S)-3,3,3-trifluoro-1-(methylethyl)-2-oxopropyl]carbamoyl}pyrrolidinyl)-1-(methylethyl)-2-oxoethyl]-[1-(methylethyl)benzotriazol-5-yl]carboxamide]	6.3
Cc1c(C(=O)N[C@H](C(=O)N2CCC[C@H]2C(=O)N[C@H](C(=O)C(F)(F)F)C(C)C)C(C)C)cnn1C(C)(C)C [Example 32, N-[(1S)-2-((2S)-2-{N-[(1S)-3,3,3-trifluoro-1-(methylethyl)-2-oxopropyl]carbamoyl}pyrrolidinyl)-1-(methylethyl)-2-oxoethyl]-(1-tert-butyl-5-methylpyrazol-4-yl)carboxamide]	8.5
Cc1c(C(=O)N[C@H](C(=O)N2CCC[C@H]2C(=O)N[C@H](C(=O)C(F)(F)F)C(C)C)C(C)C)cnn1-c1cccc(F)c1 [Example 46, N-[(1S)-2-((2S)-2-{N-[(1S)-3,3,3-trifluoro-1-(methylethyl)-2-oxopropyl]carbamoyl}pyrrolidinyl)-1-(methylethyl)-2-oxoethyl]-[1-(3-fluorophenyl)-5-methylpyrazol-4-yl]carboxamide]	8.1
CC(C)[C@H](NC(=O)c1cc(-c2ccccc2)no1)C(=O)N1CCC[C@H]1C(=O)N[C@H](C(=O)C(F)(F)F)C(C)C [Example 24, N-[(1S)-2-((2S)-2-{N-[(1S)-3,3,3-trifluoro-1-(methylethyl)-2-oxopropyl]carbamoyl}pyrrolidinyl)-1-(methylethyl)-2-oxoethyl]-(3-phenylisoxazol-5-yl)carboxamide]	15
Cc1c(C(=O)N[C@H](C(=O)N2CCC[C@H]2C(=O)N[C@H](C(=O)C(F)(F)F)C(C)C)C(C)C)cnn1-c1ccc(F)cc1 [Example 37, N-[(1S)-2-((2S)-2-{N-[(1S)-3,3,3-trifluoro-1-(methylethyl)-2-oxopropyl]carbamoyl}pyrrolidinyl)-1-(methylethyl)-2-oxoethyl]-[1-(4-fluorophenyl)-5-methylpyrazol-4-yl]carboxamide]	9.1
CC(C)[C@H](NC(=O)c1cc(C(C)(C)C)no1)C(=O)N1CCC[C@H]1C(=O)N[C@H](C(=O)C(F)(F)F)C(C)C [Example 23, N-[(1S)-2-((2S)-2-{N-[(1S)-3,3,3-trifluoro-1-(methylethyl)-2-oxopropyl]carbamoyl}pyrrolidinyl)-1-(methylethyl)-2-oxoethyl]-(3-tert-butylisoxazol-5-yl)carboxamide]	15
Cc1nsc(C)c1C(=O)N[C@H](C(=O)N1CCC[C@H]1C(=O)N[C@H](C(=O)C(F)(F)F)C(C)C)C(C)C [Example 5, N-[(1S)-2-((2S)-2-{N-[(1S)-3,3,3-trifluoro-1-(methylethyl)-2-oxopropyl]carbamoyl}pyrrolidinyl)-1-(methylethyl)-2-oxoethyl]-(3,5-dimethylisothiazol-4-yl)carboxamide]	22
Cc1c(C(=O)N[C@H](C(=O)N2CCC[C@H]2C(=O)N[C@H](C(=O)C(F)(F)F)C(C)C)C(C)C)cnn1-c1ccc(C(F)(F)F)cc1 [Example 47, N-[(1S)-2-((2S)-2-{N-[(1S)-3,3,3-trifluoro-1-(methylethyl)-2-oxopropyl]carbamoyl}pyrrolidinyl)-1-(methylethyl)-2-oxoethyl]-{5-methyl-1-[4-(trifluoromethyl)phenyl]pyrazol-4-yl}carboxamide]	15
Cc1nn(-c2ccccc2)c(C)c1C(=O)N[C@H](C(=O)N1CCC[C@H]1C(=O)N[C@H](C(=O)C(F)(F)F)C(C)C)C(C)C [Example 34, N-[(1S)-2-((2S)-2-{N-[(1S)-3,3,3-trifluoro-1-(methylethyl)-2-oxopropyl]carbamoyl}pyrrolidinyl)-1-(methylethyl)-2-oxoethyl]-(3,5-dimethyl-1-phenylpyrazol-4-yl)carboxamide]	9.8
Cc1ccc2onc(C(=O)N[C@H](C(=O)N3CCC[C@H]3C(=O)N[C@H](C(=O)C(F)(F)F)C(C)C)C(C)C)c2c1 [Example 18, N-[(1S)-2-((2S)-2-{N-[(1S)-3,3,3-trifluoro-1-(methylethyl)-2-oxopropyl]carbamoyl}pyrrolidinyl)-1-(methylethyl)-2-oxoethyl]-(5-methylbenzo[d]isoxazol-3-yl)carboxamide]	12
Cc1nocc1C(=O)N[C@H](C(=O)N1CCC[C@H]1C(=O)N[C@H](C(=O)C(F)(F)F)C(C)C)C(C)C [Example 21, N-[(1S)-2-((2S)-2-{N-[(1S)-3,3,3-trifluoro-1-(methylethyl)-2-oxopropyl]carbamoyl}pyrrolidinyl)-1-(methylethyl)-2-oxoethyl]-(3-methylisoxazol-4-yl)carboxamide]	11
CC(C)[C@H](NC(=O)c1cc(-c2ccccc2)on1)C(=O)N1CCC[C@H]1C(=O)N[C@H](C(=O)C(F)(F)F)C(C)C [Example 9, N-[(1S)-2-((2S)-2-(N-[(1S)-3,3,3-trifluoro-1-(methylethyl)-2-oxopropyl]carbamoyl}pyrrolidinyl)-1-(methylethyl)-2-oxoethyl]-(5-phenylisoxazol-3-yl)carboxamide]	9.2
CC(C)[C@H](NC(=O)c1ccc2snnc2c1)C(=O)N1CCC[C@H]1C(=O)N[C@H](C(=O)C(F)(F)F)C(C)C [Example 14, N-[(1S)-2-((2S)-2-{N-[(1S)-3,3,3-trifluoro-1-(methylethyl)-2-oxopropyl]carbamoyl}pyrrolidinyl)-1-(methylethyl)-2-oxoethyl](benzo[d]1,2,3-thiadiazol-5-yl)carboxamide]	12
